pEC50: −log10 of the molar value. Numbered stars: 1 amine (or outer) side, 2 acyl side, 3 side chain; on linkers, the order of the positions; unused ones are H or OH. Square brackets hold non-standard residues; d marks the D form. Side chains are listed from the residue outwards. Peptide text beside a SMILES is read from it. * marks the point of attachment. C18 diacid = O=C(O)CCCCCCCCCCCCCCCCC(=O)*; γGlu = O=C(O)[C@H](CCC(=O)[*:2])N[*:1]; αMeV = CC(C)[C@](C)(N)C(=O)O; AEEA = NCCOCCOCC(=O)O; Aib = CC(C)(N)C(=O)O
Target: T1, human GIP receptor (hGIPR) (Homo sapiens, UniProt P48546)
T1 sequence (P48546 22-466): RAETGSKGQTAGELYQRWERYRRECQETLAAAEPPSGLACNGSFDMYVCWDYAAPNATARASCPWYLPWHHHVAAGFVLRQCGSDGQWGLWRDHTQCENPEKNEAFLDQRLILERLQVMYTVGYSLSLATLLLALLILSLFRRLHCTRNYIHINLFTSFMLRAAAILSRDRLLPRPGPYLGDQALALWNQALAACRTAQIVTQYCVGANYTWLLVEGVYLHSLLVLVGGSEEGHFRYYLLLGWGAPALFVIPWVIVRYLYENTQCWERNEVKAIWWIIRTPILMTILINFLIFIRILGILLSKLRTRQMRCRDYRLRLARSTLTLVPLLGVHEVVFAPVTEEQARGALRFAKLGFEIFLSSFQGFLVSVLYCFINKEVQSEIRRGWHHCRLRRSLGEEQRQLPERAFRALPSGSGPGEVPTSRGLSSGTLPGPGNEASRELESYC
Assay: In vitro cellular cAMP assay for GIP receptor efficacy (HEK-293 cell line over-expressing receptor)
Type: cell-based
Settings: EC50 hGIPR 0.1% BSA, HEK-293, 0.1% BSA

Work on `CC[C@H](C)[C@H](NC(=O)[C@H](CCCNC(=N)N)NC(=O)[C@H](CC(=O)O)NC(=O)[C@H](CCCCNC(=O)COCCOCCNC(=O)COCCOCCNC(=O)CC[C@H](NC(=O)CCCCCCCCCCCCCCCCC(=O)O)C(=O)O)NC(=O)C(C)(C)NC(=O)[C@@H](NC(=O)[C@H](CO)NC(=O)[C@H](CC(C)C)NC(=O)[C@H](CC(=O)O)NC(=O)[C@H](CO)NC(=O)[C@@H](NC(=O)[C@@](C)(CC)NC(=O)[C@@H](NC(=O)CNC(=O)[C@H](CCC(=O)O)NC(=O)C(C)(C)NC(=O)[C@@H](N)Cc1ccc(O)cc1)[C@@H](C)O)[C@@H](C)CC)[C@@H](C)CC)C(=O)N[C@@H](Cc1c[nH]cn1)C(=O)N[C@@H](CCC(N)=O)C(=O)NC(C)(C)C(=O)N[C@@H](CCC(=O)O)C(=O)N[C@@](C)(Cc1ccccc1)C(=O)N[C@H](C(=O)N[C@@H](CCC(=O)O)C(=O)N[C@@H](Cc1c[nH]c2ccccc12)C(=O)N[C@@H](CC(C)C)C(=O)N[C@@H](CC(C)C)C(=O)N[C@@H](C)C(=O)N[C@@H](CCC(N)=O)C(=O)N[C@@H](CCCNC(=N)N)C(=O)NCC(N)=O)[C@@H](C)CC` [SEQ ID NO: 18, H2N-Y-Aib-E-G-T-Iva-I-S-D-L-S-I-Aib-K[{AEEA}2-gGlu-C18OH]-D-R-I-H-Q-Aib-E-Mph-I-E-W-L-L-A-Q-R-G-NH2] yielded a pEC50 of 10.75.

Work on `CC[C@H](C)[C@H](NC(=O)[C@H](Cc1ccccc1)NC(=O)[C@H](CCC(=O)O)NC(=O)[C@H](CCC(=O)O)NC(=O)[C@H](CCC(N)=O)NC(=O)[C@H](Cc1c[nH]cn1)NC(=O)[C@@H](NC(=O)[C@H](CCCNC(=N)N)NC(=O)[C@H](CC(=O)O)NC(=O)[C@H](CCCCNC(=O)COCCOCCNC(=O)COCCOCCNC(=O)CC[C@H](NC(=O)CCCCCCCCCCCCCCCCC(=O)O)C(=O)O)NC(=O)C(C)(C)NC(=O)[C@@H](NC(=O)[C@H](CO)NC(=O)[C@H](CC(C)C)NC(=O)[C@H](CC(=O)O)NC(=O)[C@H](CO)NC(=O)[C@@H](NC(=O)[C@@](C)(NC(=O)[C@@H](NC(=O)CNC(=O)[C@H](CCC(=O)O)NC(=O)C(C)(C)NC(=O)[C@@H](N)Cc1ccc(O)cc1)[C@@H](C)O)C(C)C)[C@@H](C)CC)[C@@H](C)CC)[C@@H](C)CC)C(=O)N[C@@H](CCC(=O)O)C(=O)N[C@@H](Cc1c[nH]c2ccccc12)C(=O)N[C@@H](CC(C)C)C(=O)N[C@@H](CC(C)C)C(=O)N[C@@H](C)C(=O)N[C@@H](CCC(N)=O)C(=O)NCC(=O)N1CCC[C@H]1C(=O)N[C@@H](CO)C(=O)N[C@@H](CO)C(=O)NCC(=O)N[C@@H](C)C(=O)N1CCC[C@H]1C(=O)N1CCC[C@H]1C(=O)N1CCC[C@H]1C(=O)N[C@@H](CO)C(N)=O` [SEQ ID NO: 26, H2N-Y-Aib-E-G-T-Mva-I-S-D-L-S-I-Aib-K[{AEEA}2-gGlu-C18OH]-DRIHQEEFIEWLLAQGPSSGAPPPS-NH2] (H-Y[Aib]EGT[αMeV]ISDLSI[Aib]K([AEEA-AEEA-γGlu-C18 diacid])DRIHQEEFIEWLLAQGPSSGAPPPS-NH2) yielded a pEC50 of 10.22.

Reference: patent US20240360194A1, “New Peptides as Potent and Selective GIP Receptor Agonists” (Sanofi, priority 2021, published 2024)
